For assay [1], the system named is scratching action induced by Compound 48/80. Briefly: Anti-pruritic activity test by application (Compound 48/80 scratching). It counts as in vivo, mouse (Crj:CD-1 (ICR)). To be noted: Mus musculus, topical, read-out: Itching inhibition ratio % (Concentration %). How it is done:
1) Preparation of the compound and the reagent: The compound being tested was dissolved in acetone (SIGMA). Compound 48/80 (SIGMA) was dissolved in physiological saline (m by Otsuka Pharmaceutical Co., Ltd.) so as to be 60 μg/mL.
2) Animals: Female Crj: CD-1 (ICR) mice of 6 to 10 age in week (Japan Charles Liver) were used as laboratory animals. The animals were fed in the barrier breeding room where […] in room temperature, 30 to 70% in humidity, and the light and shade condition existed every 12 hours and feed (CE-2: Japan Crea) and the drinking water were freely taken. The hair of dorsa (from the cervical region of the back to the center of the back) of the animals were cut with a hair clipper two days or more before the anti-pruritic activity is evaluated, those with no wound, rubefaction, and thickening of the skin on the dehaired part were chosen and supplied to the experiment on the day of the evaluation. 3) Evaluation procedures: The acetone solution of the compound being tested was applied by 50 μL on the dehaired parts of the mice with a pipeter. On the mice of the control group, 50 μL of acetone was applied. The 15 minutes later, 50 μL (corresponding to 3 μg) of Compound 48/80 solution was injected intradermally in the compound applied parts with the use of a injector (Terumo Corporation), the mice were individually put in five observation cages made of acrylate resin at once, and the scratching action (action of scratching the injection part by the hind leg) frequency during 30 minutes was measured. The evaluation was carried out in one group of 5 to 7 mice. 4) Data processing: The experiment results were shown by the mean values. The test of the significant difference of the compound applying group to the control group was conducted with Welch's t-test, and p<0.05 was assumed to be significant.

Assay [2] addresses T1, CB2 receptor (Homo sapiens, UniProt P34972). The assay can be described thus: Human cannabinoid receptor bonding inhibition test ([3H]CP55940), CB2. In kind it is binding. On the set-up: expressed in transfected cells; membrane fraction.
The target of assay [3] is T2, CB1 receptor (Homo sapiens, UniProt P21554). Briefly: Human cannabinoid receptor bonding inhibition test ([3H]CP55940), CB1. It counts as binding. On the set-up: expressed in transfected cells; membrane fraction.
The target of assay [4] is T2, CB1 receptor. The assay can be described thus: cAMP formation inhibition experiment through a cannabinoid receptor (forskolin stimulation), CB1. Details: expressed in transfected cells; host or cells: CHO cells. It counts as cell-based. As to the method:
A compound being tested was added in the CHO cell which had mad human CB1 or CB2 receptor reveal and incubated for 15 minutes, and then forskolin (the final concentration 4 μM, and manufactured by SIGMA Corp.) was added and the mixture was incubated for 20 minutes. After the reaction had been stopped by adding 1M hydrochloric acid, the amount of cAMP in the supernatant was measured with the use of Cyclic AMP kit (made by the CIS Diagnostic Corp.).
A general note: Changes in cAMP serve as a functional read-out for many G protein-coupled receptors.

The target of assay [5] is T1, CB2 receptor. Briefly: cAMP formation inhibition experiment through a cannabinoid receptor (forskolin stimulation), CB2. In kind it is cell-based. On the set-up: expressed in transfected cells; host or cells: CHO cells.
Where [6] appears, read: read-out: Agonist activity (nM) CB1.
The mark [7] stands for this setting: [3H]CP55940 0.5 nM, membrane preparation of CHO cells expressing CB1, Ki calculated from IC50, read-out: Binding activity (nM) CB1.
Setting [8] is: [3H]CP55940 0.5 nM, membrane preparation of CHO cells expressing CB2, Ki calculated from IC50, read-out: Binding activity (nM) CB2.
Where [9] appears, read: read-out: Binding activity (nM) CB1.
Where [10] appears, read: read-out: Agonist activity (nM) CB2.

Molecules are shown by their SMILES. Where two headings read alike, the source gives them in different places.

T2 sequence (P21554 whole entry): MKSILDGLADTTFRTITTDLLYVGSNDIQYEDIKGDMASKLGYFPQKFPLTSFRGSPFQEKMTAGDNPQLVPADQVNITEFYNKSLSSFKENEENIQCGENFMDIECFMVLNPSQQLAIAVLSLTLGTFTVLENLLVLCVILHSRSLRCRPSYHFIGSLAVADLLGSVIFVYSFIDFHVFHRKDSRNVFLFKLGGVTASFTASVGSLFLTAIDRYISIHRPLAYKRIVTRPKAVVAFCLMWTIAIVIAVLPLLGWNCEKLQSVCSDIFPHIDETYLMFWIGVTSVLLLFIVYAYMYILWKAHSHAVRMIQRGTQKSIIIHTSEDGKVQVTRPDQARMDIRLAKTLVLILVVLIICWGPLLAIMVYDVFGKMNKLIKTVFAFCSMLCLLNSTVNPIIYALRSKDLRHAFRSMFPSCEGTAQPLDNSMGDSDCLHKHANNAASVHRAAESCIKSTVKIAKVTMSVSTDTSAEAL
T1 sequence (P34972 whole entry): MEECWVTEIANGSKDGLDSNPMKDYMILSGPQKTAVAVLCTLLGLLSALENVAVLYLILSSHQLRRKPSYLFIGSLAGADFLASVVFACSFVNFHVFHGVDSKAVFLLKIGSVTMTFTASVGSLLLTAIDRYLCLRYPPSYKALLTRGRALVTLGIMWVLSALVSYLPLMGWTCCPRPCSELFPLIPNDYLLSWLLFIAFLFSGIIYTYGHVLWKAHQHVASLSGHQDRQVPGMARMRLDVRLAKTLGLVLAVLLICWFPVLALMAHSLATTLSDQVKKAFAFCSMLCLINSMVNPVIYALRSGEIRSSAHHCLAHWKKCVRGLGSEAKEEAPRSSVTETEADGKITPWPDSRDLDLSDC

Turning to `CCCCn1c2c(cc(C(=O)NCc3ccccc3)c1=O)CCCCCC2` [Compound 4-101, reference compound], the inhibition in vivo at 5 % in assay [1] turned out to be 7.5%. For the same molecule, the Ki in assay [2] worked out at 1.9 nM.

On to `CCCCn1c2c(cc(C(=O)NC3CCCCC3)c1=O)CCCCCC2` [Compound 10-035, reference compound], for which the inhibition in vivo at 5 % in assay [1] stood at 22%. The results for the Ki in assay [3] and in assay [2] were 19 nM and 0.2 nM, respectively.

As for `CSC(=O)C(C)(C)NC(=O)c1cc2c(n(CC3CCCCC3)c1=O)CCCCCC2` [Compound I-001, 2-[(1-cyclohexylmethyl-2-oxo-1,2,5,6,7,8,9,10-octahydro-cycloocta[b]pyridine-3-carbonyl)-amino]-2-methyl-thiopropionic acid S-methyl ester], in assay [1], the inhibition in vivo at 0.5 % amounted to 53%. Further, the Ki in assay [3] and in assay [2] was < 2 nM in each case. The IC50 in assay [4] (setting [6]) is < 2 nM.

Regarding `CN(CCO)C(=O)C(C)(C)NC(=O)c1cc2c(n(CC3CCCCC3)c1=O)CCCCCC2` [Compound I-019, 1-cyclohexylmethyl-2-oxo-1,2,5,6,7,8,9,10-octahydro-cycloocta[b]pyridine-3-carboxylic acid {1-[(2-hydroxyethyl)-methyl-carbamoyl]-1-methyl-ethyl}-amide], in assay [1], the inhibition in vivo at 1 % was determined as 74%. The values for the Ki in assay [3] (setting [7]) and in assay [2] were 2.9 nM and < 2 nM, respectively. The IC50 in assay [4] (setting [6]) is 8.1 nM.

Take `CCCCn1c2c(cc(C(=O)N[C@H](C(=O)OC)C(C)C)c1=O)CCCCCC2` [Compound I-111]: the inhibition in vivo at 0.1 % in assay [1] is 55%. Further, the figures for the Ki in assay [3] and in assay [2] were 3.5 nM and < 2 nM, respectively. For the same molecule, the IC50 in assay [4] (setting [6]) was < 2 nM.

For the molecule `CCc1c(C)cc(C(=O)NC2(C(=O)O)CCCCC2)c(=O)n1Cc1ccc(F)cc1` [Compound I-493], the Ki in assay [3] was > 2000 nM; in assay [2] (setting [8]), 36 nM. Moreover, the IC50 in assay [5] (inhibition of forskolin (4 μM)-stimulated cAMP formation, CHO cells expressing human CB2, read-out: Agonist activity (nM) CB2) stood at 24 nM.

`O=C(O)C1=C(NC(=O)c2cc3c(n(CC4CCCCC4)c2=O)CCCCCC3)CCCC1` [Compound X-126]: the Ki in assay [3] stood at 873 nM; in assay [2], 31 nM. For the same molecule, the IC50 in assay [4] (setting [6]) came to 131 nM; in assay [5] it was 35 nM.

Take `CCCCn1c2c(cc(C(=O)NC(CC)(CC)CC(=O)O)c1=O)CCCCCC2` [Compound X-128]: the Ki in assay [3] (setting [7]) was 608 nM; in assay [2], 10 nM. Moreover, the IC50 stood at 152 nM in assay [4] and 3 nM in assay [5].

For the molecule `CCc1c(C)cc(C(=O)Nc2nc(CC(=O)O)ns2)c(=O)n1CC1CCCCC1` [Compound X-133], the Ki in assay [3] (setting [7]) is > 2000 nM; in assay [2], 5.5 nM. For the same molecule, the IC50 in assay [4] was > 2000 nM; in assay [5], < 2 nM.

As to `CCCCn1c2c(cc(C(=O)N[C@H](CC(=O)O)CC(C)C)c1=O)CCCCCC2` [Compound X-138], the Ki is > 2000 nM in assay [3] (setting [7]) and 42 nM in assay [2]. Further, the IC50 is > 2000 nM in assay [4] and 30 nM in assay [5].

`CCCCn1c2c(cc(C(=O)NC3(CC(=O)O)CCCCC3)c1=O)CCCCCC2` [Compound X-157]: the results for the Ki in assay [3] (setting [7]) and in assay [2] were 270 nM and 3.4 nM, respectively. The IC50 is 268 nM in assay [4] and < 2 nM in assay [5].

As for `CCCCn1c(CCC)c(CC)cc(C(=O)NC2(CC(=O)O)CCCCC2)c1=O` [Compound X-174], the values for the Ki in assay [3] (setting [7]) and in assay [2] were > 2000 nM and 8.9 nM, respectively. Besides, the figures for the IC50 in assay [4] and in assay [5] were > 2000 nM and 9.8 nM, respectively.

In the case of `CCCCn1c(CCC)c(CC)cc(C(=O)NC(CC)(CC)CC(=O)O)c1=O` [Compound X-196], the Ki in assay [3] (setting [7]) is > 2000 nM; in assay [2], 31 nM. Moreover, the IC50 is > 2000 nM in assay [4] and 45 nM in assay [5].

Turning to `CCc1c(C)cc(C(=O)NCC2(CC(=O)O)CCCCC2)c(=O)n1Cc1ccc(F)cc1` [Compound X-197], the Ki in assay [3] stood at 1260 nM; in assay [2] it was 41 nM. The IC50 in assay [4] (setting [6]) was determined as 708 nM; in assay [5], 7.2 nM.

Consider `CCCCn1c2c(cc(C(=O)NC(CCC(=O)O)CC(C)C)c1=O)CCCCCC2` (centres unmarked) [Compound X-202], for which the Ki is 1180 nM in assay [3] (setting [7]) and 46 nM in assay [2]. In addition, the results for the IC50 in assay [4] and in assay [5] were > 2000 nM and 81 nM, respectively.

In the case of `CCc1c(C)cc(C(=O)Nc2nc(CC(=O)O)cs2)c(=O)n1Cc1ccc(F)cc1` [Compound X-222], the values for the Ki in assay [3] (setting [7]) and in assay [2] were 1620 nM and 43 nM, respectively. For the same molecule, the IC50 is > 2000 nM in assay [4] and 57 nM in assay [5].

With `CCc1c(C)cc(C(=O)NC2(C(=O)O)CCCCCCCCC2)c(=O)n1Cc1ccc(F)cc1` [Compound X-231], the Ki in assay [3] (setting [7]) is > 2000 nM; in assay [2] it was 38 nM. Also, the IC50 in assay [4] was > 2000 nM; in assay [5], 35 nM.

As to `CCCCn1c2c(cc(C(=O)NC3(C(=O)O)CCCCCCCCC3)c1=O)CCCCCC2` [Compound X-232], the Ki in assay [3] (setting [7]) was > 2000 nM; in assay [2], 15 nM. Besides, the IC50 is > 2000 nM in assay [4] and 29 nM in assay [5].

For `CCCCn1c(CCC)c(CC)cc(C(=O)NC2(CC(=O)O)CCCC2)c1=O` [Compound X-233], the Ki is > 2000 nM in assay [3] (setting [7]) and 24 nM in assay [2]. Besides, the figures for the IC50 in assay [4] and in assay [5] were > 2000 nM and 15 nM, respectively.

For the molecule `CCc1c(C)cc(C(=O)NC2(CC(=O)O)CCCC2)c(=O)n1Cc1ccc(F)cc1` [Compound X-234], the Ki is 482 nM in assay [3] (setting [7]) and 4 nM in assay [2]. The IC50 worked out at 375 nM in assay [4] and 6.1 nM in assay [5].

`CCCCn1c2c(cc(C(=O)NC3(CC(=O)O)CCCC3)c1=O)CCCCCC2` [Compound X-235]: the Ki in assay [3] stood at 950 nM; in assay [2], 3.7 nM. The IC50 in assay [4] (setting [6]) was 270 nM; in assay [5] it was 4.7 nM.

In the case of `CCc1c(C)cc(C(=O)NC2(C(=O)O)CCCCCCC2)c(=O)n1Cc1ccc(F)cc1` [Compound X-239], the Ki was 1420 nM in assay [3] (setting [7]) and 10 nM in assay [2]. Also, the IC50 in assay [4] is > 2000 nM; in assay [5] it was 3.6 nM.

With `O=C(NC1(C(=O)O)CCCCCCC1)c1cc2c(n(CC3CCCCC3)c1=O)CCCCCC2` [Compound X-240], the Ki in assay [3] (setting [7]) is 793 nM; in assay [2] (setting [8]), 6.2 nM. For the same molecule, the IC50 in assay [4] (inhibition of forskolin (4 μM)-stimulated cAMP formation, CHO cells expressing human CB1, read-out: Agonist activity (nM) CB1) is 468 nM; in assay [5], < 2 nM.

`CCCCn1c(CCC)c(CC)cc(C(=O)NC2(C(=O)O)CCCCCC2)c1=O` [Compound X-241]: the Ki in assay [3] (setting [7]) was > 2000 nM; in assay [2] it was 57 nM. Further, the IC50 in assay [4] is > 2000 nM; in assay [5], 26 nM.

Take `O=C(NC1(C(=O)O)CCCCC1)c1cc2c(n(Cc3ccc(F)c(F)c3)c1=O)CCCCCC2` [XI-017]: the Ki in assay [3] (setting [7]) was 441 nM; in assay [2] it was 6.6 nM. Moreover, the values for the IC50 in assay [4] and in assay [5] were 127 nM and 11 nM, respectively.

In the case of `CCc1c(C)cc(C(=O)Nc2nc(CC(=O)O)cs2)c(=O)n1Cc1ccc(F)c(F)c1` [XI-025], the Ki in assay [3] (setting [9]) came to 1360 nM; in assay [2], 54 nM. Also, the IC50 in assay [4] was > 2000 nM; in assay [5] (setting [10]), 209 nM.

On to `CCc1c(C)cc(C(=O)NC2(C(=O)O)CCCCC2)c(=O)n1Cc1ccc(F)c(F)c1` [XI-027], for which the Ki in assay [3] (setting [9]) was determined as 1360 nM; in assay [2], 54 nM. Further, the figures for the IC50 in assay [4] and in assay [5] (setting [10]) were > 2000 nM and 209 nM, respectively.
